Measurements: patent US8846928B2 (Portola Pharmaceuticals, Inc., priority 2010, dated 2014)

Biological target: T1, full length active recombinant SYK enzyme (Homo sapiens, UniProt P43405)
T1 construct: full length active recombinant SYK enzyme (Millipore, Calif.); purchased Millipore
Assay: Inhibition of Syk tyrosine phosphorylation activity (LANCE TR-FRET kinase assay)
Assay type: biochemical
Description: Inhibition of Syk Tyrosine Phosphorylation Activity
Potency of candidate molecules for inhibiting Syk tyrosine phosphorylation activity is assessed by measuring the ability of a test compound to inhibit Syk-mediated tyrosine phosphorylation of a Syk-specific substrate.
SYK tyrosine phosphorylation activity is measured using the LANCE™ Technology developed by Perkin Elmer Life and Analytical Sciences (Boston, Mass.). LANCE™ refers to homogeneous time resolved fluorometry applications using techniques such as time-resolved fluorescence resonance energy transfer assay (TR-FRET) (see generally for procedures in Perkin Elmer Application Note—How to Optimize a Tyrosine Kinase Assay Using Time Resolved Fluorescence-Based LANCE Detection, wwww.perkinelmer.com/lifesciences). The assay principle involves detection of a phosphorylated substrate using energy transfer from a phosphospecific europium-labeled antibody to streptavidin-allophycocyanin as an acceptor.
To test the ability of candidate molecules to inhibit SYK tyrosine phosphorylation activity, molecules are reconstituted in 30% DMSO and serially diluted 1:3 with the final dilution containing DMSO in the absence of the candidate molecule. The final DMSO concentration in the assay is 3%. Kinase assays are performed as a two part reaction. […] The second reaction involves termination of the kinase reaction and the simultaneous addition of the detection reagents—europium-labeled anti-phosphotyrosine reagent (Eu-W1024-PY100, Perkin Elmer, Boston, Mass.) and Streptavidin-Allophycocyanin detection reagent (SA-APC, Prozyme, Calif.). The kinase reaction is performed in a black U-bottom 96-well microtitre plate. The final reaction volume is 50 μL and contains a final concentration of 1 nM active SYK enzyme, 550 nM SYK-substrate, and 100 μM ATP diluted in a buffer containing 50 mM Tris pH 7.5, 5 mM MgCl2, and 1 mM DTT. The reaction is allowed to proceed for 1 hour at room temperature. The quench buffer contains 100 mM Tris pH 7.5, 300 mM NaCl2, 20 mM EDTA, 0.02% Brij35, and 0.5% BSA. The detection reagents are added to the reaction mixture at the following dilutions-1:500 for Eu-W1024-PY100 and 1:250 for SA-APC. The kinase reaction is terminated by the addition of 50 μL quench buffer containing the detection reagents. The detection is allowed to proceed for 1 hr at room temperature. Detection of the phosphorylated substrate in the absence and presence of inhibitors is measured in the TR-FRET instrument, Analyst HT (Molecular Probes, Sunnyvale, Calif.) and the condition for measurements are set up using CriterionHost Release 2.0 (Molecular Probes, Sunnyvale, Calif.). The settings used are a follows: excitation 360 nm, emission 665-7.5 nm, beam splitter 350 nm 50/50, flash 100 pulses, delay 60 us, integration 400 us, z-height 2 mm. […] IC50s were derived by non-linear regression analysis. […]

| Structure (SMILES) | IC50 |
| --- | --- |
| Cc1cc(Nc2cc(N[C@H](Cc3ccc(O)cc3)C(N)=O)c(F)cc2C(N)=O)sn1 [Example 28, (R)-4-(1-amino-3-(4-hydroxyphenyl)-1-oxopropan-2-ylamino)-5-fluoro-2-(3-methylisothiazol-5-ylamino)benzamide] | 0.1 to 1 µM |
| COC[C@H](N)CNc1ccc(C(N)=O)c(Nc2cc(C)ns2)c1 [Example 29, (R)-4-(2-amino-3-methoxypropylamino)-2-(3-methylisothiazol-5-ylamino)benzamide] | 0.1 to 1 µM |
| CC[C@H](N)CNc1ccc(C(N)=O)c(Nc2cc(C)ns2)c1 [Example 30, (S)-4-(2-aminobutylamino)-2-(3-methylisothiazol-5-ylamino)benzamide] | 0.1 to 1 µM |
| Cc1cc(Nc2cc(NC[C@H](C)N)ccc2C(N)=O)sn1 [Example 31, (S)-4-(2-aminopropylamino)-2-(3-methylisothiazol-5-ylamino)benzamide] | 0.01 to 0.1 µM |
| Cc1cc(Nc2cc(NC[C@@H](N)CC(C)C)ccc2C(N)=O)sn1 [Example 32, (S)-4-(2-amino-4-methylpentylamino)-2-(3-methylisothiazol-5-ylamino)benzamide] | 0.1 to 1 µM |
| CC[C@@H](Nc1ccc(C(N)=O)c(Nc2cc(C)ns2)c1)C(N)=O [Example 33, (R)-4-(1-amino-1-oxobutan-2-ylamino)-2-(3-methylisothiazol-5-ylamino)benzamide] | 0.01 to 0.1 µM |
| Cc1cc(Nc2cc(N[C@@H](C(N)=O)C3CC3)ccc2C(N)=O)sn1 [Example 34] | 0.01 to 0.1 µM |
| Cc1cc(Nc2cc(N[C@H](CC3CC3)C(N)=O)ccc2C(N)=O)sn1 [Example 35, (R)-4-(1-amino-3-cyclopropyl-1-oxopropan-2-ylamino)-2-(3-methylisothiazol-5-ylamino)benzamide] | 0.01 to 0.1 µM |
| COc1ccc(C[C@@H](Nc2cc(Nc3cc(C)ns3)c(C(N)=O)cc2F)C(N)=O)cc1 [Example 36, (R)-4-(1-amino-3-(4-methoxyphenyl)-1-oxopropan-2-ylamino)-5-fluoro-2-(3-methylisothiazol-5-ylamino)benzamide] | 0.01 to 0.1 µM |
| Cc1cc(Nc2cc(N[C@H](Cc3cccc(F)c3)C(N)=O)c(F)cc2C(N)=O)sn1 [Example 37, (R)-4-(1-amino-3-(3-fluorophenyl)-1-oxopropan-2-ylamino)-5-fluoro-2-(3-methylisothiazol-5-ylamino)benzamide] | 0.01 to 0.1 µM |
| Cc1cc(Nc2cc(N[C@H](Cc3ccncc3)C(N)=O)c(F)cc2C(N)=O)sn1 [Example 38, (R)-4-(1-amino-1-oxo-3-(pyridin-4-yl)propan-2-ylamino)-5-fluoro-2-(3-methylisothiazol-5-ylamino)benzamide] | 0.1 to 1 µM |
| Cc1cc(Nc2cc(N[C@H](Cc3cccnc3)C(N)=O)c(F)cc2C(N)=O)sn1 [Example 39, (R)-4-(1-amino-1-oxo-3-(pyridin-3-yl)propan-2-ylamino)-5-fluoro-2-(3-methylisothiazol-5-ylamino)benzamide] | 0.1 to 1 µM |
| COC[C@@H](Nc1cc(Nc2cc(C)ns2)c(C(N)=O)cc1F)C(N)=O [Example 40, (R)-4-(1-amino-3-methoxy-1-oxopropan-2-ylamino)-5-fluoro-2-(3-methylisothiazol-5-ylamino)benzamide] | 0.01 to 0.1 µM |
| NC(=O)c1cc(F)c(N[C@@H]2CCCC[C@@H]2N)nc1Nc1cccc(-n2nccn2)c1 [Example 41, 2-(3-(2H-1,2,3-triazol-2-yephenylamino)-6-(1R,2S)-2-aminocyclohexylamino)-5-fluoronicotinamide] | 0.001 to 0.01 µM |
| NC(=O)c1cc(F)c(N[C@@H]2CCCC[C@@H]2N)nc1Nc1cccc(-n2cncn2)c1 [Example 42, 2-(3-(1H-1,2,4-triazol-1-yl)phenylamino)-6-((1R,2S)-2-aminocyclohexylamino)-5-fluoronicotinamide] | 0.001 to 0.01 µM |
| NC(=O)c1cc(F)c(N[C@@H]2CCCC[C@@H]2N)nc1Nc1cccc(-n2ccnn2)c1 [Example 43] | 0.001 to 0.01 µM |

| Structure (SMILES) | IC50 |
| --- | --- |
| NC(=O)c1cc(F)c(N[C@@H]2CCCC[C@@H]2N)nc1Nc1cccc(-n2cnnn2)c1 [Example 44, 2-(3-(1H-tetrazol-1-yl)phenylamino)-6-((1R,2S)-2-aminocyclohexylamino)-5-fluoronicotinamide] | 0.001 to 0.01 µM |
| NC(=O)c1cc(F)c(N[C@@H]2CCCC[C@@H]2N)nc1Nc1cccc(-n2cccn2)c1 [Example 45, 2-(3-(1H-pyrazol-1-yl)phenylamino)-6-((1R,2S)-2-aminocyclohexylamino)-5-fluoronicotinamide] | 0.001 to 0.01 µM |
| NC(=O)c1cc(F)c(N[C@@H]2CCCC[C@@H]2N)nc1Nc1cccc(-n2ccnc2)c1 [Example 46, 2-(3-(1H-imidazol-1-yl)phenylamino)-6-((1R,2S)-2-aminocyclohexylamino)-5-fluoronicotinamide] | 0.001 to 0.01 µM |
| NC(=O)c1cc(F)c(N[C@@H]2CCCC[C@@H]2N)nc1Nc1cccc(N2CCCC2)c1 [Example 47, 6-((1R,2S)-2-aminocyclohexylamino)-5-fluoro-2-(3-(pyrrolidin-1-yl)phenylamino)nicotinamide] | 0.001 to 0.01 µM |
| NC(=O)c1cc(F)c(N[C@@H]2CCCC[C@@H]2N)nc1Nc1cccc(N2CCOCC2)c1 [Example 48, 6-((1R,2S)-2-aminocyclohexylamino)-5-fluoro-2-(3-morpholinophenylamino)nicotinamide] | 0.01 to 0.1 µM |
| NC(=O)c1cc(F)c(N[C@@H]2CCCC[C@@H]2N)nc1Nc1ccc(-n2nccn2)cc1 [Example 49, 2-(4-(2H-1,2,3-triazol-2-yephenylamino)-6-(1R,2S)-2-aminocyclohexylamino)-5-fluoronicotinamide] | 0.01 to 0.1 µM |
| NC(=O)c1cc(F)c(N[C@@H]2CCCC[C@@H]2N)nc1Nc1ccc(-n2cncn2)cc1 [Example 50] | 0.001 to 0.01 µM |
| NC(=O)c1cc(F)c(N[C@@H]2CCCC[C@@H]2N)nc1Nc1ccc(-n2ccnc2)cc1 [Example 51, 2-(4-(1H-imidazol-1-yl)phenylamino)-6-((1R,2S)-2-aminocyclohexylamino)-5-fluoronicotinamide] | 0.001 to 0.01 µM |
| NC(=O)c1cc(F)c(N[C@@H]2CCCC[C@@H]2N)nc1Nc1ccc(-n2cccn2)cc1 [Example 52, 2-(4-(1H-pyrazol-1-yl)phenylamino)-6-((1R,2S)-2-aminocyclohexylamino)-5-fluoronicotinamide] | 0.001 to 0.01 µM |
| NC(=O)c1cc(F)c(N[C@@H]2CCCC[C@@H]2N)nc1Nc1ccc(N2CCCC2)cc1 [Example 53, 6-((1R,2S)-2-aminocyclohexylamino)-5-fluoro-2-(4-(pyrrolidin-1-yl)phenylamino)nicotinamide] | 0.01 to 0.1 µM |
| NC(=O)c1cc(F)c(N[C@@H]2CCCC[C@@H]2N)nc1Nc1ccc(N2CCOCC2)cc1 [Example 54, 6-((1R,2S)-2-aminocyclohexylamino)-5-fluoro-2-(4-morpholinophenylamino)nicotinamide] | 0.01 to 0.1 µM |
| NC(=O)c1cc(F)c(N[C@@H]2CCCC[C@@H]2N)nc1Nc1cccc(-c2ncccn2)c1 [Example 55, 6-((1R,2S)-2-aminocyclohexylamino)-5-fluoro-2-(3-(pyrimidin-2-yl)phenylamino)nicotinamide] | 0.001 to 0.01 µM |
| NC(=O)c1cc(F)c(N[C@@H]2CCCC[C@@H]2N)nc1Nc1cccc(-c2ccncn2)c1 [Example 56, 6-((1R,2S)-2-aminocyclohexylamino)-5-fluoro-2-(3-(pyrimidin-4-yl)phenylamino)nicotinamide] | 0.001 to 0.01 µM |
| NC(=O)c1cc(F)c(N[C@@H]2CCCC[C@@H]2N)nc1Nc1cccc(-c2cncnc2)c1 [Example 57, 6-((1R,2S)-2-aminocyclohexylamino)-5-fluoro-2-(3-(pyrimidin-5-yl)phenylamino)nicotinamide] | 0.001 to 0.01 µM |
| NC(=O)c1cc(F)c(N[C@@H]2CCCC[C@@H]2N)nc1Nc1ccc(-c2ncccn2)cc1 [Example 58, 6-((1R,2S)-2-aminocyclohexylamino)-5-fluoro-2-(4-(pyrimidin-2-yl)phenylamino)nicotinamide] | 0.001 to 0.01 µM |
| NC(=O)c1cc(F)c(N[C@@H]2CCCC[C@@H]2N)nc1Nc1ccc(-c2ccncn2)cc1 [Example 59, 6-(1R,2S)-2-aminocyclohexylamino)-5-fluoro-2-(4-(pyrimidin-4-yephenylamino)nicotinamide] | 0.001 to 0.01 µM |
